Measurements from ChEMBL document CHEMBL5537201, “Discovery of Unique Bis-Substituted Aromatic Amide Derivatives as Novel Highly Potent Antibiotics for Combating Methicillin-Resistant Staphylococcus aureus (MRSA)” (J Med Chem, 2024).
pKd: −log10 of the molar value. Values after ≈ are worked out from the molar mass of the structure shown. Active and inactive are the calls of the source. The rule behind the calls is not given here.

Columns and labels:
Staphylococcus aureus [1] = assay: Antimicrobial activity against Staphylococcus aureus ATCC6538 assessed as increase in ROS levels measured upto 180 mins in presence of chloramphenicol by H2DCFDA probe based flow cytometry; assay type: functional, organism-based
Staphylococcus aureus [2] = assay: Bactericidal activity against norfloxacin-resistant Staphylococcus aureus ATCC6538 at 5 ug/ml measured upto 150 mins; assay type: functional, organism-based; settings: dose 5.0 µg/ml
Cell membrane [3] = assay: Induction of inner membrane permeabilization in methicillin resistant Staphylococcus aureus clinical isolate MRS153 assessed as increase in blue fluorescence at 5 ug/ml by DAPI staining based analysis; assay type: cell membranes; settings: dose 5.0 µg/ml
Staphylococcus aureus [4] = assay: In vivo antibacterial activity against methicillin-resistant Staphylococcus aureus clinical isolate MRS153 infected in C57BL/6N mouse model assessed as reduction in bacterial load in liver at 3.125 to 12.5 mg/kg, iv measured after 24 hrs; assay type: functional, organism-based; settings: dose 3.125-12.5 mg/kg
Staphylococcus aureus [5] = assay: Antibiofilm activity against Staphylococcus aureus clinical isolate MRS153 assessed as reduction in biofilm formation at 1 to 32 ug/ml incubated for 20 to 22 hrs by crystal violet staining based analysis; assay type: functional, organism-based; settings: dose 1-32 µg/ml, time 20-22 hrs
Cell membrane [6] = assay: Induction of inner membrane permeabilization in Staphylococcus aureus ATCC6538 assessed as increase in red fluorescence at 5 ug/ml by PI staining based analysis; assay type: cell membranes; settings: dose 5.0 µg/ml
Staphylococcus aureus [7] = assay: Antimicrobial activity against vancomycin-resistant Staphylococcus aureus assessed as reduction in bacterial growth incubated for 24 hrs by two-fold broth dilution method; assay type: functional
[8] = Toxicity in BALB/c mouse assessed as as change in ALT level at 25 to 50 mg/kg, iv; assay type: organism-based; settings: in vivo, dose 25-50 mg/kg
[9] = Binding affinity to Staphylococcus aureus ATCC6538 Cardiolipin assessed as dissociation constant by ITC analysis
Peptidoglycan [10] = assay: Binding affinity to methicillin resistant Staphylococcus aureus clinical isolate MRS153 peptidoglycan assessed as change in MIC at upto 256 ug/ml measured after 22 hrs; settings: dose <= 256.0 µg/ml
Staphylococcus aureus [11] = assay: Antibacterial activity against methicillin-resistant Staphylococcus aureus clinical isolate MRS153 infected in C57BL/6N mouse model assessed as improvement in survival rate at 3.125 to 12.5 mg/kg, iv administered as single dose measured for 7 days; assay type: functional, organism-based; settings: dose 3.125-12.5 mg/kg, time 7.0 day
Staphylococcus aureus [12] = assay: Antimicrobial activity against Staphylococcus aureus ATCC6538 assessed as membrane fluidity measured after 35 mins; assay type: functional, organism-based
Staphylococcus hominis = assay: Bactericidal activity against multidrug-resistant Staphylococcus hominis at 5 ug/ml measured upto 150 mins; assay type: functional, organism-based; settings: dose 5.0 µg/ml
Staphylococcus aureus [13] = assay: In vivo antibacterial activity against methicillin-resistant Staphylococcus aureus clinical isolate MRS153 infected in C57BL/6N mouse model assessed as reduction in bacterial load in spleen at 3.125 to 12.5 mg/kg, iv measured after 24 hrs; assay type: functional, organism-based; settings: dose 3.125-12.5 mg/kg
Staphylococcus aureus [14] = assay: Antimicrobial activity against methicillin resistant Staphylococcus aureus clinical isolate MRS23 assessed as reduction in bacterial growth incubated for 24 hrs by two-fold broth dilution method; assay type: functional
Cell membrane [15] = assay: Induction of inner membrane permeabilization in methicillin resistant Staphylococcus aureus clinical isolate MRS153 assessed as disruption of cell membrane by measuring rightward shift measured after by PI staining based flow cytometry analysis; assay type: cell membranes
Staphylococcus aureus [16] = assay: Antimicrobial activity against methicillin resistant Staphylococcus aureus clinical isolate MRS1 assessed as reduction in bacterial growth incubated for 24 hrs by two-fold broth dilution method; assay type: functional
Staphylococcus aureus [17] = assay: In vivo antibacterial activity against methicillin-resistant Staphylococcus aureus clinical isolate MRS153 infected in C57BL/6N mouse model assessed as reduction in bacterial load in lung at 3.125 to 12.5 mg/kg, iv measured after 24 hrs; assay type: functional, organism-based; settings: dose 3.125-12.5 mg/kg
Staphylococcus aureus [18] = assay: Antimicrobial activity against methicillin resistant Staphylococcus aureus clinical isolate MRS121 assessed as reduction in bacterial growth incubated for 24 hrs by two-fold broth dilution method; assay type: functional
Cell membrane [19] = assay: Induction of cytoplasmic membrane depolarization in methicillin resistant Staphylococcus aureus clinical isolate MRS153 assessed as increase in fluorescence intensity measured upto 120 mins by DiSC3(5) dye based fluorescence method; assay type: cell membranes
Streptomyces albus = assay: Antimicrobial activity against Streptomyces albus SHBC D11158 assessed as reduction in bacterial growth incubated for 24 hrs by two-fold broth dilution method; assay type: functional
Staphylococcus aureus [20] = assay: Antibacterial activity against methicillin-resistant Staphylococcus aureus clinical isolate MRS153 infected in C57BL/6N mouse model assessed as infiltration of inflammatory cells at 3.125 to 12.5 mg/kg, iv; assay type: functional, organism-based; settings: dose 3.125-12.5 mg/kg
Staphylococcus aureus [21] = assay: Antimicrobial activity against methicillin resistant Staphylococcus aureus clinical isolate MRS153 assessed as increase in ROS levels measured upto 180 mins in presence of chloramphenicol by H2DCFDA probe based flow cytometry; assay type: functional, organism-based
Staphylococcus aureus [22] = assay: In vivo antibacterial activity against methicillin-resistant Staphylococcus aureus clinical isolate MRS153 infected in C57BL/6N mouse model assessed as reduction in bacterial load in heart at 3.125 to 12.5 mg/kg, iv measured after 24 hrs; assay type: functional, organism-based; settings: dose 3.125-12.5 mg/kg
[23] = Cytotoxicity against African green monkey Vero E6 cells assessed as reduction in cell viability measured after 24 hrs by CCK-8 method; assay type: toxicity, cell-based, Chlorocebus sabaeus, Vero C1008
Staphylococcus aureus [24] = assay: Antimicrobial activity against methicillin resistant Staphylococcus aureus clinical isolate MRS153 assessed as membrane fluidity measured after 35 mins; assay type: functional, organism-based
Staphylococcus aureus [25] = assay: Antimicrobial activity against Staphylococcus aureus ATCC6538 assessed as proton dynamic dissipation at pH 5 to 11; assay type: functional, organism-based
Peptidoglycan [26] = assay: Binding affinity to Staphylococcus aureus ATCC6538 peptidoglycan assessed as change in MIC at upto 256 ug/ml measured after 22 hrs; settings: dose <= 256.0 µg/ml
Cell membrane [27] = assay: Induction of Outer membrane disruption in Staphylococcus aureus ATCC6538 assessed as […] in fluorescence intensity measured upto 30 mins by NPN dye based fluorescence analysis; assay type: cell membranes
Staphylococcus aureus [28] = assay: Antimicrobial activity against methicillin resistant Staphylococcus aureus clinical isolate MRS70 assessed as reduction in bacterial growth incubated for 24 hrs by two-fold broth dilution method; assay type: functional
Staphylococcus aureus [29] = assay: Antimicrobial activity against methicillin resistant Staphylococcus aureus clinical isolate MRS152 assessed as reduction in bacterial growth incubated for 24 hrs by two-fold broth dilution method; assay type: functional
Staphylococcus aureus [30] = assay: Binding affinity to methicillin resistant Staphylococcus aureus clinical isolate MRS153 Phosphatidylglycerol assessed as change in MIC at upto 256 ug/ml measured after 22 hrs; settings: dose <= 256.0 µg/ml
Staphylococcus aureus [31] = assay: Antimicrobial activity against Staphylococcus aureus ATCC6538 assessed as reduction in bacterial growth incubated for 24 hrs by two-fold broth dilution method; assay type: functional
Staphylococcus aureus [32] = assay: Antimicrobial activity against methicillin resistant Staphylococcus aureus clinical isolate MRS273 assessed as reduction in bacterial growth incubated for 24 hrs by two-fold broth dilution method; assay type: functional
Staphylococcus aureus [33] = assay: Bactericidal activity against methicillin-resistant Staphylococcus aureus clinical isolate MRS1 at 5 ug/ml measured upto 150 mins; assay type: functional, organism-based; settings: dose 5.0 µg/ml
[34] = Toxicity in BALB/c mouse assessed as as effect on kidney at 25 to 50 mg/kg, iv by H and E staining based analysis; assay type: organism-based; settings: in vivo, dose 25-50 mg/kg
A549 = assay: Cytotoxicity against human A549 cells assessed as reduction in cell viability measured after 24 hrs by CCK-8 method; assay type: functional, cell-based; settings: A549, 24 h
[35] = Hemolytic activity in rabbit Red blood cell assessed as hemolysis incubated for 1 hr by two-fold microdilution method; assay type: toxicity, cell-based, Oryctolagus cuniculus, Erythrocyte; settings: red blood cells (erythrocytes)

O=C(CCC(F)(F)F)N(Cc1cc2ccccc2s1)c1cc(-c2noc(C(F)(F)F)n2)ccc1O
Activity (Staphylococcus aureus [1]): inactive | Activity (Staphylococcus aureus [2]): Active | Activity (Cell membrane [3]): Active | Activity (Staphylococcus aureus [4]): Active | Activity (Staphylococcus aureus [5]): Active | Activity (Cell membrane [6]): Active | MIC (Staphylococcus aureus [7]): 0.5 µg/mL (≈ 0.97 µM) | Activity [8]: Non-Toxic | pKd [9]: 5.24 | Activity (Peptidoglycan [10]): inactive | Activity (Staphylococcus aureus [11]): Active | Activity (Staphylococcus aureus [12]): Active | Activity (Staphylococcus hominis): Active | Activity (Staphylococcus aureus [13]): Active | MIC (Staphylococcus aureus [14]): 2 µg/mL (≈ 3.88 µM) | Activity (Cell membrane [15]): Active | MIC (Staphylococcus aureus [16]): 1 µg/mL (≈ 1.94 µM) | Activity (Staphylococcus aureus [17]): Active | MIC (Staphylococcus aureus [18]): 1 µg/mL (≈ 1.94 µM) | Activity (Cell membrane [19]): Active | MIC (Streptomyces albus): < 0.5 µg/mL | Activity (Staphylococcus aureus [20]): Active | Activity (Staphylococcus aureus [21]): inactive | Activity (Staphylococcus aureus [22]): Active | IC50 at 24 h [23]: > 25 µg/mL | Activity (Staphylococcus aureus [24]): Active | Activity (Staphylococcus aureus [25]): Active | Activity (Peptidoglycan [26]): inactive | Activity (Cell membrane [27]): Dose-Dependent Effect | MIC (Staphylococcus aureus [28]): 1 µg/mL (≈ 1.94 µM) | MIC (Staphylococcus aureus [29]): 1 µg/mL (≈ 1.94 µM) | Activity (Staphylococcus aureus [30]): inactive | MIC (Staphylococcus aureus [31]): 0.25 µg/mL (≈ 0.485 µM) | MIC (Staphylococcus aureus [32]): 1 µg/mL (≈ 1.94 µM) | Activity (Staphylococcus aureus [33]): Active | Activity [34]: Non-Toxic | IC50 (A549): 16.8 µg/mL (≈ 32.7 µM) | HC50 at 1 h [35]: 2400 µg/mL
